Measurements from patent US11752195B2, “Compositions and methods of use of synthetic peptides with Mycobacterium abscessus inhibitory activity” (priority 2021, dated 2023).
Values after ≈ are worked out from the molar mass of the structure shown. Like-named read-outs stand apart in the source and are kept apart here. Peptide text beside a SMILES is read from it.

Tests used:
[1] = system: Mabs 19977R (rough morphotype); test: Growth inhibition screen with unpurified peptides in M7H9, MHB, CAMHB; format: cell-based, Mycobacterium abscessus; settings: unpurified peptide 100 μM
Procedure: (§1) Mabs ATCC 19977 smooth morphotype (Mabs 19977S) cells were cultured at 37° C. in Middlebrook 7H9 supplemented with albumin, dextrose, and catalase (ADC) (10%), Tween 80 (0.05%), and glycerol (0.2%) (herein referred to as M7H9). Mabs 19977S was exposed to clarithromycin (8 μg/ml) in M7H9 for 24 h at 37° C., subjected to serial dilutions and plated on Middlebrook 7H10 agar supplemented with oleic acid, albumin, dextrose, and catalase (OADC) (herein referred to as M7H10). After 5 d incubation at 37° C., a single, isolated colony displaying a rough morphotype (Mabs 19977R) was detected, grown, and stored at −70° C. Mabs 19977S and Mabs 19977R were grown for approximately 32 h at 37° C., diluted 1:100 in fresh, pre-warmed M7H9, and grown for an additional 14 h until the cultures reached early-to-mid-logarithmic phase (OD600=0.2-0.3).
(§2) Bacteria grown in M7H9, MHB, and cation-adjusted MHB (CAMHB) were used to identify unpurified peptides with inhibitory activity against Mabs 19977S and Mabs 19977R. Peptides (50-65% purity) were synthesized by Sigma Aldrich (St. Louis, Mo.) PEPscreen Custom Peptide Libraries. Mabs ATCC 19977S and ATCC 19977R mid-logarithmic phase cultures were centrifuged (3,715×g) for 2 min, washed in pre-warmed M7H9, re-suspended in M7H9, MHB, or CAMHB, and diluted to 10^6 CFU/ml. In a 96-well polystyrene microtiter plate, media (M7H9, MHB, or CAMHB), unpurified peptides (100 μM or 10 μM), ethylenediaminetetraacetic acid (EDTA) (100 μM), and cells (Mabs 19977S or Mabs 19977R) (10^5 CFU/ml) were added. EDTA was added to determine if metal ion chelation would alter peptide activity. Clarithromycin (4 μg/ml) was used as an antibiotic positive control. The 96-well microtiter plates were statically incubated at 37° C. for 72 h. The OD600 was measured every 24 h using a SpectraMax M2 microplate reader (Molecular Devices, San Jose, Calif., USA). Peptides that reduced Mabs growth by ≥50%, when compared to the growth control OD600, were considered active.
(§3) In culture medium with cation supplementation (CAMHB), ASU2060 (100 μM) had activity against both morphotypes when EDTA was added (FIG. 2F). […] There were no peptides with inhibitory activity in CAMHB without EDTA (FIG. 2E).

[2] = system: Mabs 19977S (Mabs ATCC 19977 smooth morphotype); test: as above; format: cell-based, Mycobacterium abscessus; settings: unpurified peptide 100 μM
Procedure: as §1, §2, §3

Mabs 19977R = settings: 96 h
Procedure: (§4) In order to determine effects on Mabs viability, microdilution antimicrobial assays were performed in MHB.

Mabs 19977S = settings: purified peptide, MHB with EDTA (100 μM), 96 h, 37° C.
Procedure: as §4

[3] = system: human red blood cell (hRBC); test: Human red blood cell (hRBC) hemolytic assay; format: cell-based
Procedure: To determine if the purified, Mabs inhibitory peptides were toxic, human red blood cell (hRBC) hemolytic assays were performed. Peptides (at 1×, 2×, and 4× their respective Mabs 19977S MICs) were added to 4% hRBC in saline and statically incubated for 1 h or 18 h at 37° C. […] Following incubation, the peptide-hRBC mixtures and the 1% Triton X-100 positive controls were centrifuged for 1 min at 1,000×g to pellet the intact hRBC. The supernatant for each experimental mixture and control was removed, and OD475 measurements were recorded to determine the percentage of lysed hRBC. The percentage of hemolytic activity was normalized by comparing the supernatant absorbance of all conditions tested to an equivalent number of hRBC lysed with 1% Triton X-100 (Eq. 1) (50).

[4] = system: E. coli clinical isolates
Source text: (approved by Mayo Clinic Biospecimen Subcommittee BIO00015462).

E. coli ATCC 25922 = format: cell-based, Escherichia coli; settings: ATCC 25922, 22 h
Procedure: Samples were serially diluted in MHB to ˜10^5 CFU/ml and added to a 96-well polystyrene plate prepared with ASU2060 (128-4 μM). After incubation for 22 h at 37° C., the OD600 was measured using a SpectraMax M2 microplate reader (Molecular Devices, San Jose, Calif., USA). Values were normalized to the medium blank (MHB) and E. coli (ATCC 25922) treated with nitrofurantoin at 64 μM.

[5] = purified peptide, MHB with EDTA (100 μM), 37° C.

Compound | activity (growth reduced by ≥50% vs growth control OD600) ([1]; M7H9, with EDTA (100 μM)) | activity (growth reduced by ≥50% vs growth control OD600) ([1]; MHB, with EDTA) | activity (growth reduced by ≥50% vs growth control OD600) ([2]; M7H9, with EDTA (100 μM)) | activity (growth reduced by ≥50% vs growth control OD600) ([2]; MHB, with EDTA) | MIC (Mabs 19977S) [µM] | also measured
CC(C)[C@H](NC(=O)[C@@H](CCCCN)NC(=O)[C@H](C)NC(=O)[C@@H](C)NC(=O)[C@@H](CCCCN)NC(=O)[C@H](CO)NC(=O)[C@@H](CCCNC(=N)N)NC(=O)CNC(=O)[C@H](CC(N)=O)NC(=O)[C@H](Cc1ccccc1)NC(=O)[C@@H](N)CCC(N)=O)C(=O)N[C@@H](CC(N)=O)C(=O)N[C@@H](Cc1ccccc1)C(=O)N[C@H](Cc1c[nH]c2ccccc12)C(=O)N[C@H](CCCNC(=N)N)C(=O)N[C@H](CCCCN)C(=O)N[C@H](C)C(=O)O [ASU2001, QFNGrSkaAkVNFwrka] (HELM PEPTIDE1{Q.F.N.G.[dR].S.[dK].[dA].A.[dK].V.N.F.[dW].[dR].[dK].[dA]}$$$$V2.0) | exhibited activity | maintained activity | exhibited activity | maintained activity | – | activity (growth reduced by ≥50% vs growth control OD600) ([1]; M7H9, without EDTA): exhibited activity
CC(C)C[C@@H](NC(=O)[C@@H](C)NC(=O)[C@@H](CCCCN)NC(=O)[C@@H](CCCNC(=N)N)NC(=O)[C@H](Cc1ccccc1)NC(=O)[C@H](CCC(N)=O)NC(=O)[C@H](CC(N)=O)NC(=O)[C@@H](NC(=O)[C@@H](CCCCN)NC(=O)[C@@H](CCCNC(=N)N)NC(=O)[C@H](C)NC(=O)[C@@H](CCCCN)NC(=O)[C@H](CO)NC(=O)[C@@H](CC(C)C)NC(=O)CNC(=O)[C@H](Cc1ccc(O)cc1)NC(=O)[C@H](N)CCCNC(=N)N)C(C)C)C(N)=O [ASU2009, rYGlSkArkVNQFrkal] (HELM PEPTIDE1{[dR].Y.G.[dL].S.[dK].A.[dR].[dK].V.N.Q.F.[dR].[dK].[dA].[dL].[am]}$$$$V2.0) | exhibited activity | maintained activity | exhibited activity | maintained activity | – | –
CC(C)C[C@@H](NC(=O)[C@@H](C)NC(=O)[C@H](CO)NC(=O)[C@@H](CCCCN)NC(=O)[C@@H](CCCNC(=N)N)NC(=O)[C@@H](CCCNC(=N)N)NC(=O)[C@H](Cc1ccccc1)NC(=O)[C@@H](CC(C)C)NC(=O)[C@H](CC(N)=O)NC(=O)[C@H](Cc1c[nH]cn1)NC(=O)[C@@H]1CCCN1C(=O)[C@H](C)NC(=O)[C@H](CO)NC(=O)[C@@H]1CCCN1C(=O)CNC(=O)[C@@H](NC(=O)[C@H](N)CCCNC(=N)N)C(C)C)C(N)=O [ASU2019] (HELM PEPTIDE1{[dR].V.G.P.S.A.P.H.N.[dL].F.[dR].[dR].[dK].S.[dA].[dL].[am]}$$$$V2.0; N-terminus and C-terminus assumed) | – | – | – | – | 256 (≈ 488 µg/mL) | IC50 (Mabs 19977R): 76 to 82 µM; relative hRBC toxicity among the six peptides [3]: the most toxicity
CC(C)C[C@@H](NC(=O)CNC(=O)[C@@H](Cc1c[nH]c2ccccc12)NC(=O)[C@@H](CCCNC(=N)N)NC(=O)[C@@H](N)CCC(N)=O)C(=O)N[C@@H](CO)C(=O)N[C@H](CC(C)C)C(=O)N[C@@H](C)C(=O)N1CCC[C@H]1C(=O)N[C@@H](Cc1ccc(O)cc1)C(=O)N[C@H](CCCCN)C(=O)N[C@@H](CC(N)=O)C(=O)N[C@@H](Cc1ccccc1)C(=O)N[C@H](CCCNC(=N)N)C(=O)N[C@H](CCCNC(=N)N)C(=O)N[C@H](CC(C)C)C(=O)N[C@@H](CO)C(N)=O [ASU2056, QrwGlSlAPYkNFrrlS] (HELM PEPTIDE1{Q.[dR].[dW].G.[dL].S.[dL].A.P.Y.[dK].N.F.[dR].[dR].[dL].S.[am]}$$$$V2.0; N-terminus and C-terminus assumed) | – | – | – | – | 32 (≈ 66.9 µg/mL) | IC50 (Mabs 19977R; [5]): 45 µM; relative hRBC toxicity among the six peptides [3]: the least toxicity
CC(C)C[C@@H](NC(=O)[C@@H](C)NC(=O)CNC(=O)[C@@H](CC(C)C)NC(=O)[C@@H](CCCCN)NC(=O)[C@@H](CCCNC(=N)N)NC(=O)[C@@H](CCCNC(=N)N)NC(=O)[C@H](CC(N)=O)NC(=O)[C@H](Cc1ccc(O)cc1)NC(=O)[C@@H](CCCNC(=N)N)NC(=O)[C@H](C)NC(=O)[C@H](CO)NC(=O)[C@@H](CCCNC(=N)N)NC(=O)CNC(=O)[C@@H](N)Cc1ccc(O)cc1)C(=O)N[C@@H](CO)C(=O)NCC(=O)O [ASU2059, YGrSArYNrrklGalSG] (HELM PEPTIDE1{Y.G.[dR].S.A.[dR].Y.N.[dR].[dR].[dK].[dL].G.[dA].[dL].S.G}$$$$V2.0) | exhibited activity | maintained activity | exhibited activity | maintained activity | – | –
CC(C)C[C@@H](NC(=O)CNC(=O)[C@H](CO)NC(=O)[C@@H](CCCCN)NC(=O)[C@@H](CCCNC(=N)N)NC(=O)[C@@H](Cc1c[nH]c2ccccc12)NC(=O)[C@@H](CCCNC(=N)N)NC(=O)[C@H](Cc1ccccc1)NC(=O)[C@H](CC(N)=O)NC(=O)[C@H](Cc1ccc(O)cc1)NC(=O)[C@@H](CCCNC(=N)N)NC(=O)[C@H](C)NC(=O)[C@H](CO)NC(=O)[C@@H](Cc1c[nH]c2ccccc12)NC(=O)[C@@H](CCCNC(=N)N)NC(=O)CNC(=O)[C@@H](N)C(C)C)C(N)=O [ASU2060, VGrwSArYNFrwrkSGl] (HELM PEPTIDE1{V.G.[dR].[dW].S.A.[dR].Y.N.F.[dR].[dW].[dR].[dK].S.G.[dL].[am]}$$$$V2.0; N-terminus and C-terminus assumed) | – | – | – | – | 8 (≈ 17.1 µg/mL) | IC50 (Mabs 19977R; [5]): 13 µM; ASU2060 MIC ([4]; E. coli clinical isolate 23): 8 µM; ASU2060 MIC ([4]; E. coli clinical isolate 36): 8 µM; ASU2060 MIC ([4]; E. coli clinical isolate 45): 8 µM; ASU2060 MIC ([4]; E. coli clinical isolate 47): 8 µM; ASU2060 MIC ([4]; E. coli clinical isolate 97): 8 µM; ASU2060 MIC ([4]; E. coli clinical isolate 98): 8 µM; MIC (E. coli ATCC 25922): 4 µM (≈ 8.55 µg/mL)
Triton X-100 [reference compound] | – | – | – | – | – | hRBC lysis by positive control ([3]; Triton X-100 1%, 4% hRBC): complete hRBC lysis
